We go through three compounds from patent publication US20130237487A1, “CRYSTALLINE AND NON-CRYSTALLINE FORMS OF SGLT2 INHIBITORS” (SCINOPHARM TAIWAN, LTD., priority 2011, published 2013).

Data set [1] is described as follows: Dynamic vapor sorption (DVS) analysis. Particulars: for sorption/desorption behavior between cycles: DVS isotherm plots, two sorption/desorption cycles; for hygroscopicity (moisture sorption) / physical stability of the solid form as humidity is changed: DVS; for hygroscopicity (moisture sorption): relative humidity increased from 0% to 90%; for physical stability of the solid form as humidity is changed: up to 90% RH.

A short description of data set [2]: Hydration-state stability of Form CS3 under different humidity (DSC/TGA, Karl Fischer titration). The format is physicochemical. The text has this: Form CS3 has been further characterized using DSC/TGA and Karl Fischer titration. […] Dehydration, which is reversible, only occurs when the sample is exposed to a low humidity environment (e.g., less than about 10% RH). […] The DSC/TGA traces of crystalline complex Form CS3 of canagliflozin are in accordance with FIG. 17. The aforementioned physical stability characteristic of this embodiment makes the crystalline complex Form CS3 of canagliflozin a preferred solid form of canagliflozin of this invention.
(FIG. 20) is essentially the same as the XRPD pattern acquired at 25° C. (FIG. 15). Thus, from the XRPD patterns acquired at 25° C. and 100° C., it can be reasonably concluded that although Form CS3 is a monohydrate under ambient conditions (such as in an analytical chemistry laboratory), it can also exist as an anhydrate at low humidity, such as less than about 10% RH, and at temperatures higher than ambient temperature.

Where [3] appears, read: laboratory environmental conditions.

The structures appear in SMILES notation. Entries after “also recorded” stand apart in the source; their conditions may differ.

On to `Cc1ccc([C@@H]2O[C@H](CO)[C@@H](O)[C@H](O)[C@H]2O)cc1Cc1ccc(-c2ccc(F)cc2)s1.O=C(O)[C@@H]1CCCN1` [Form CS1], for which, in data set [1], the “sorption/desorption behavior between cycles” value is “completely consistent between cycles”, the “hygroscopicity (moisture sorption)” value was “not hygroscopic” and the “physical stability of the solid form as humidity is changed” value is “stable in the presence or absence of moisture”.

As for `Cc1ccc([C@@H]2O[C@H](CO)[C@@H](O)[C@H](O)[C@H]2O)cc1Cc1ccc(-c2ccc(F)cc2)s1` [Form CS3], the “physical stability (hydration state)” value in data set [2] (highly humid conditions) is “remains as a monohydrate”. Moreover, in data set [2] (setting [3]), the hygroscopicity result is given as “non-hygroscopic” and the “physical stability (hydration state)” value is reported as “stable as a monohydrate”. The “relative humidity at which (reversible) dehydration occurs” value in data set [2] (low humidity environment) is “less than 10 % RH”.

As for `Cc1ccc([C@@H]2O[C@H](CO)[C@@H](O)[C@H](O)[C@H]2O)cc1Cc1ccc(-c2ccc(F)cc2)s1` [amorphous form of canagliflozin, (2S,3R,4R,5S,6R)-2-{3-[5-[4-fluoro-phenyl)-thiophen-2-ylmethyl]-4-methyl-phenyl}-6-hydroxymethyl-tetrahydro-pyran-3,4,5-triol], in data set [1], the “sorption/desorption behavior between cycles” value is “second sorption/desorption cycle was different from the first cycle; also recorded: inconsistent between the two cycles”, the “hygroscopicity (moisture sorption)” value is listed as “significantly hygroscopic” and the “physical stability of the solid form as humidity is changed” value was “conversion or partial conversion from the amorphous state to a crystalline state; also recorded: undergoes physical change (from amorphous to crystalline)”.
